One assay deals with BT-474. The assay can be described thus: Cell viability assay (CellTiter Glo), BT-474. It counts as cell-based. Conditions: Homo sapiens; BT-474 cells, 72 hours, CellTiter Glo; read-out: IC50, cell viability, BT-474.
The target in assay [1] is T1, phosphorylated ERBB2 (pERBB2) (Homo sapiens, UniProt P04626).
T1 construct: endogenous in cells; host or cells: BT-474
Kind of assay: Detection of phosphorylated ERBB2 (pERBB2) by ELISA in BT-474 cells. The following applies: four hours incubation. It is filed as cell-based. In a few lines:
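Phospho-ERBB2 in lysates was quantified by sandwich ELISA (A450, TMB) after 4 h compound exposure at 37 °C of BT-474 cells seeded at 2.0×10^4 per well. Compounds tested at 10 µM to 0.01 nM final in four-fold steps; activity normalized to DMSO (0.1%) high and cell-free low controls.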

Assay [2] addresses T2, phosphorylated EGFR (pEGFR) (Homo sapiens, UniProt P00533).
T2 construct: performed to measure phosphorylated EGFR levels using A431 cells (10% FBS); endogenous in cells; host or cells: A431
Kind of assay: Detection of phosphorylated EGFR (pEGFR) in EGF-stimulated A431 cells. The following applies: A431 cells (10% FBS), 4 hours incubation, EGF 30 ng/mL 10 minutes, AlphaLISA. It counts as cell-based. In a few lines:
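AlphaLISA read-out of EGFR phosphorylation after a 10-min EGF pulse (30 ng/mL final). A431 cells (10% FBS) had been exposed to compound for 4 h at 37 °C. IC50 was fitted from % inhibition normalised to DMSO and staurosporine control lysates.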

The target in assay [3] is Ba/F3 ERBB2 A775_G776insYVMA (Homo sapiens, UniProt P04626, DUP772-775, cells depend on it). Kind of assay: Cell viability assay, Ba/F3 ERBB2 A775_G776insYVMA. It is filed as cell-based, mouse. Conditions: 72 hours, CellTiter Glo. A digest of the protocol: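 Viability after 72 h compound treatment (37 °C, 5% CO2) was quantified by CellTiter-Glo luminescence of intracellular ATP, with sigmoidal dose-response fitting. Cells were retrovirally engineered Ba/F3 lines whose growth depends on the mutant human ERBB2 in place of IL-3, plated at 3000 per well.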
Sequence of Ba/F3 ERBB2 A775_G776insYVMA (P04626 with tags, fused parts or gaps DUP772-775): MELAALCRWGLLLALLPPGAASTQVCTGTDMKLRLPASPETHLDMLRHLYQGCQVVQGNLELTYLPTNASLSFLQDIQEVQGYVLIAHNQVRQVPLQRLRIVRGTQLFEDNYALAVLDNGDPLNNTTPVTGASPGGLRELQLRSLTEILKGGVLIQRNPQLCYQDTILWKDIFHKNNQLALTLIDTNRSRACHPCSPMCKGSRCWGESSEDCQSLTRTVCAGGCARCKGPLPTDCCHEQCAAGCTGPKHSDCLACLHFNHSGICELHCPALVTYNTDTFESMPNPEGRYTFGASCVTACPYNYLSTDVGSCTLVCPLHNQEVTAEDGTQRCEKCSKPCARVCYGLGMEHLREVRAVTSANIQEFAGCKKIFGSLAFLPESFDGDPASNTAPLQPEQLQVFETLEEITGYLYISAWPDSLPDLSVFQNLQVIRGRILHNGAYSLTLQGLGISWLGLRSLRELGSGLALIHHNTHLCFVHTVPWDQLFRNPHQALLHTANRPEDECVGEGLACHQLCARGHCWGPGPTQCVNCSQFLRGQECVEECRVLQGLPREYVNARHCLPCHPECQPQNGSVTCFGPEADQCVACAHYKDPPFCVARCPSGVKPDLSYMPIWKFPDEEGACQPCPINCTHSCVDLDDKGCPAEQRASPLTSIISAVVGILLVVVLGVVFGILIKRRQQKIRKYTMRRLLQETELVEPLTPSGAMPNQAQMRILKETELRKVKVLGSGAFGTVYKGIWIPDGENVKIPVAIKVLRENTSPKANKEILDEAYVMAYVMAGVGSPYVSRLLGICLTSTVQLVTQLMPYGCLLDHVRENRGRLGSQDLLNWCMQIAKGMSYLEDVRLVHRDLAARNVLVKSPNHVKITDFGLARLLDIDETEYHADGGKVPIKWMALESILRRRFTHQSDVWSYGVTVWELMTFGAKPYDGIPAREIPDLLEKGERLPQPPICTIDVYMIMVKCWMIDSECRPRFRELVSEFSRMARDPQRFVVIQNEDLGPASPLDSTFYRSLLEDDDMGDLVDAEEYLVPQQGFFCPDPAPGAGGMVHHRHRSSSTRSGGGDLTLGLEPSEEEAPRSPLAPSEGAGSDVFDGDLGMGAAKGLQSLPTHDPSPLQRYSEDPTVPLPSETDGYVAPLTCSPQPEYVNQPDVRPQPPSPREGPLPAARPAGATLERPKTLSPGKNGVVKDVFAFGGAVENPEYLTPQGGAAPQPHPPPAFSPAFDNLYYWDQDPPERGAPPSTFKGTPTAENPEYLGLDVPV

Setting [4] is: Ba/F3 ERBB2 A775_G776insYVMA cells, Tables B2-B4, read-out: IC50, cell viability, Ba/F3 ERBB2 A775_G776insYVMA.
Setting [5] is: Ba/F3 ERBB2 YVMA cells, cell viability, Table B5, read-out: Ba/F3 ERBB2 YVMA, IC50.

Counter-ions that a name gives are not always drawn. Like-named read-outs stand apart in the source and are kept apart here.

T2 sequence (P00533 25-1210): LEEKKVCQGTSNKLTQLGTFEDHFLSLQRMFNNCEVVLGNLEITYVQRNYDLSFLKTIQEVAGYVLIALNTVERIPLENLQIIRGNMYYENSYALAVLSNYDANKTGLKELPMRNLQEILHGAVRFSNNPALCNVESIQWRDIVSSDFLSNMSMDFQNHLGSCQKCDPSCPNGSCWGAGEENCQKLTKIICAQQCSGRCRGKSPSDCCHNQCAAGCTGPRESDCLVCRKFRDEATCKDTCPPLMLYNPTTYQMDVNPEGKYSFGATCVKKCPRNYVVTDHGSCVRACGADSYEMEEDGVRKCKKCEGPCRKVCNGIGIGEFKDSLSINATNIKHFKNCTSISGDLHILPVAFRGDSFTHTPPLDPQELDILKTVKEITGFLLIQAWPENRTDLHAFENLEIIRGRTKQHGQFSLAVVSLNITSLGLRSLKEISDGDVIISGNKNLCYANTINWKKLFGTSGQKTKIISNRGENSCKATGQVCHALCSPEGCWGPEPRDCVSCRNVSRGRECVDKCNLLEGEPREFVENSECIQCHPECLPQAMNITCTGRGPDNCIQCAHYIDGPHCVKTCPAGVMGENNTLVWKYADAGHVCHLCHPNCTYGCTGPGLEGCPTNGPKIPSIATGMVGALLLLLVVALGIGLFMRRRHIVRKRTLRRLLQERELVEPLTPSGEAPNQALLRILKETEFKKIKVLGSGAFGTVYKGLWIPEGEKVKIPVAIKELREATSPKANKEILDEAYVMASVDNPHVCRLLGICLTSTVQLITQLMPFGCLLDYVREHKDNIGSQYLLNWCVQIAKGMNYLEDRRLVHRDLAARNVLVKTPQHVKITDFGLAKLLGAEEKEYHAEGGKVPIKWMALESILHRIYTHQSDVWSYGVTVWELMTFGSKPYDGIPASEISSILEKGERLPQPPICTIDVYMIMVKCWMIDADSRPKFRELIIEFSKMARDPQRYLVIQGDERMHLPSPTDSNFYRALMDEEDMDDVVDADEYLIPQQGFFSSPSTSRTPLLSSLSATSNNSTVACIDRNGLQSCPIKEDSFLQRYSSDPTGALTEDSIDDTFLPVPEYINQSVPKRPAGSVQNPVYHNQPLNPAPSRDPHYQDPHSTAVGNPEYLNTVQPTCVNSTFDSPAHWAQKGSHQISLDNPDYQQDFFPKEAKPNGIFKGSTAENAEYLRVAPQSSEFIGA
T1 sequence (P04626 23-1255): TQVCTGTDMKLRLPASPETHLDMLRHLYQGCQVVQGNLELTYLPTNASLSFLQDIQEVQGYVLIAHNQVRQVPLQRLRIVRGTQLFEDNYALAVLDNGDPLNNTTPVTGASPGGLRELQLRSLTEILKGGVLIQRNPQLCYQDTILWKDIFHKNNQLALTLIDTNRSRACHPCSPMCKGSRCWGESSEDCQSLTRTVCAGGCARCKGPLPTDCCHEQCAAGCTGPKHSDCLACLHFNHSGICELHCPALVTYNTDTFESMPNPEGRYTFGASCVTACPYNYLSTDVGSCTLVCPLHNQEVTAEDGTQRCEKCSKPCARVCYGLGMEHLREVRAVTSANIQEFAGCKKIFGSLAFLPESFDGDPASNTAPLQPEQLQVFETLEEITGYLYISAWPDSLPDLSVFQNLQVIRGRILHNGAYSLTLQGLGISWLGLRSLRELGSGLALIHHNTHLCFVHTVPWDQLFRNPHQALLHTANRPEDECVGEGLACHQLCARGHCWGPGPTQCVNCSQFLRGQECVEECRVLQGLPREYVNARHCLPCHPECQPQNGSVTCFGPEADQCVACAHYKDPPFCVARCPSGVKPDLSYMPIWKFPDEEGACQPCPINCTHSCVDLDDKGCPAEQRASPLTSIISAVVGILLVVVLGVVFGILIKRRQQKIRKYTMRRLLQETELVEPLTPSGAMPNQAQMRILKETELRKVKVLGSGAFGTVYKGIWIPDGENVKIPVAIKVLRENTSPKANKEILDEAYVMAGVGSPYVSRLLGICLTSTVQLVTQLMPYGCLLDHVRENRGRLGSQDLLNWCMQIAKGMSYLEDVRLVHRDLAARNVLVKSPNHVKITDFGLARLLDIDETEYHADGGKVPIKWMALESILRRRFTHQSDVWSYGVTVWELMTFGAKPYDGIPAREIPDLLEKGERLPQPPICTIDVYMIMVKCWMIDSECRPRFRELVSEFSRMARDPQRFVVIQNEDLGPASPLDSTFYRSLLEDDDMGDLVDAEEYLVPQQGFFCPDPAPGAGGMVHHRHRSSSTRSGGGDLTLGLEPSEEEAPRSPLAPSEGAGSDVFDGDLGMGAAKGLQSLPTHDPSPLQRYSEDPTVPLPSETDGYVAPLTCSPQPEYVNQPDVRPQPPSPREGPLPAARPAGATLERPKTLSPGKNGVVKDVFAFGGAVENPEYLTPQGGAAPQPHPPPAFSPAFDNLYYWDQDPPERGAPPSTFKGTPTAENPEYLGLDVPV

Regarding `C=C1C(=O)N(c2ccc3ncnc(Nc4ccc(Oc5ccn6ncnc6c5)c(C)c4)c3c2)CC12CC2` [Compound 2, 5-[4-[(3-methyl-4-[[1,2,4]triazolo[1,5-a]pyridin-7-yloxy]phenyl)amino]quinazolin-6-yl]-7-methylidene-5-azaspiro[2.4]heptan-6-one], the values for the IC50 (in the assay on BT-474; in assay [1]; in assay [2]) were 19.5 nM, 75.9 nM and over 10000 nM, respectively.
Regarding `C=C1CCN(c2ccc3ncnc(Nc4ccc(Oc5ccn6ncnc6c5)c(C)c4F)c3c2)C1=O` [Compound 14, 1-[4-[(2-fluoro-3-methyl-4-[[1,2,4]triazolo[1,5-a]pyridin-7-yloxy]phenyl)amino]quinazolin-6-yl]-3-methylidenepyrrolidin-2-one], the IC50 with BT-474 came to 4.32 nM; in assay [1], 26.9 nM; in assay [2], 3800 nM.
Regarding `C=C1CCN(c2ccc3ncnc(Nc4cc(C)c(Oc5ccn6ncnc6c5)cc4F)c3c2)C1=O` [Compound 15, 1-[4 [(2-fluoro-5-methyl-4-[[1,2,4]triazolo[1,5-a]pyridin-7-yloxy]phenyl)amino]quinazolin-6-yl]-3-methylidenepyrrolidin-2-one], the values for the IC50 (with BT-474; in assay [1]; in assay [2]) were 3.27 nM, 8.15 nM and 1250 nM, respectively. The GI50 in assay [3] (setting [4]) amounted to 245 nM.
As to `C=C1CCN(c2ccc3ncnc(Nc4ccc(Cc5ccn6ncnc6c5)c(C)c4)c3c2)C1=O` [Compound 16, 1-[4-[(3-methyl-4-[[1,2,4]triazolo[1,5-a]pyridin-7-ylmethyl]phenyl)amino]quinazolin-6-yl]-3-methylidenepyrrolidin-2-one], the IC50 with BT-474 came to 4.67 nM; in assay [1], 9.15 nM; in assay [2], 235 nM. Also, the GI50 in assay [3] (setting [4]) worked out at 169 nM.
As to `Cc1cc(Nc2ncnc3ccc(N4CC/C(=C\CN(C)C)C4=O)cc23)ccc1Oc1ccn2ncnc2c1` [Compound 18, (E)-1-(4-(4-([1,2,4]triazolo[1,5-a]pyridin-7-yloxy)-3-methylphenylamino)quinazolin-6-yl)-3-(2-(dimethylamino)ethylidene)pyrrolidin-2-one hydrochloride], the values for the IC50 (with BT-474; in assay [1]; in assay [2]) were 3.73 nM, 7.52 nM and over 9640 nM, respectively. Moreover, the GI50 in assay [3] (setting [4]) stood at 77.1 nM.
In the case of `CN(C)C/C=C1\CCN(c2cc3c(Nc4ccc(Oc5cccnc5)c(F)c4)ncnc3cn2)C1=O` [Compound 125, (3E)-3-[2-(dimethylamino)ethylidene]-1-(4-{[3-fluoro-4-(pyridin-3-yloxy)phenyl]amino}pyrido[3,4-d]pyrimidin-6-yl)pyrrolidin-2-one], the GI50 in assay [3] (setting [5]) amounted to 56 nM. Moreover, the IC50 in assay [1] was determined as 42.8 nM; in assay [2] it was 1140 nM.
In the case of `CN(C)C/C=C1\CCN(c2ccc3ncnc(Nc4ccc(Oc5cccnc5)c(F)c4)c3n2)C1=O` [Compound 126, (3E)-3-[2-(dimethylamino)ethylidene]-1-(4-{[3-fluoro-4-(pyridin-3-yloxy)phenyl]amino}pyrido[3,2-d]pyrimidin-6-yl)pyrrolidin-2-one], the GI50 in assay [3] (setting [5]) was found to be 34 nM. The IC50 worked out at 99.1 nM in assay [1] and 1110 nM in assay [2].
The corresponding values for `C=C1CCCN(c2cc3c(Nc4ccc(Oc5ccc6c(c5)ncn6C)c(C)c4)ncnc3cn2)C1=O` [Compound 127, 1-[4-({3-methyl-4-[(1-methyl-1,3-benzodiazol-5-yl)oxy]phenyl}amino)pyrido[3,4-d]pyrimidin-6-yl]-3-methylidenepiperidin-2-one] are 24.3 nM, 27 nM and 1200 nM.
Consider `CN(C)C/C=C1\CCN(c2cc3c(Nc4ccc(Oc5ccc6c(c5)ncn6C)c(F)c4)ncnc3cn2)C1=O` [Compound 128, (3E)-3-[2-(dimethylamino)ethylidene]-1-[4-({3-fluoro-4-[(1-methyl-1,3-benzodiazol-5-yl)oxy]phenyl}amino)pyrido[3,4-d]pyrimidin-6-yl]pyrrolidin-2-one], for which the GI50 in assay [3] (setting [5]) worked out at 7.9 nM. The results for the IC50 in assay [1] and in assay [2] were 21.4 nM and over 10000 nM, respectively.
For the molecule `CN(C)C/C=C1\CCN(c2cc3c(Nc4ccc(Oc5ccn6ncnc6c5)c(F)c4)ncnc3cn2)C1=O` [Compound 129, (3E)-3-[2-(dimethylamino)ethylidene]-1-{4-[(3-fluoro-4-{[1,2,4]triazolo[1,5-a]pyridin-7-yloxy}phenyl)amino]pyrido[3,4-d]pyrimidin-6-yl}pyrrolidin-2-one], the GI50 in assay [3] (setting [5]) stood at 19.3 nM. In addition, the IC50 in assay [1] came to 11.9 nM; in assay [2] it was 2320 nM.
For the molecule `Cc1cc(Nc2ncnc3ccc(N4CC/C(=C\CN(C)C)C4=O)nc23)ccc1Oc1cncc(F)c1` [Compound 130, (3E)-3-[2-(dimethylamino)ethylidene]-1-[4-({4-[(5-fluoropyridin-3-yl)oxy]-3-methylphenyl}amino)pyrido[3,2-d]pyrimidin-6-yl]pyrrolidin-2-one], the GI50 in assay [3] (setting [5]) was 17.8 nM. The half-inhibitory concentration (IC50) in assay [1] came out at 40.6 nM; in assay [2], 187 nM.
In the case of `CN(C)C/C=C1\CCN(c2cc3c(Nc4cc(Cl)c(Oc5ccn6ncnc6c5)cc4F)ncnc3cn2)C1=O` [Compound 133, (E)-1-(4-((4-([1,2,4]triazolo[1,5-a]pyridin-7-yloxy)-5-chloro-2-fluorophenyl)amino)pyrido[3,4-d]pyrimidin-6-yl)-3-(2-(dimethylamino)ethylidene)pyrrolidin-2-one], the GI50 in assay [3] (setting [5]) turned out to be 16.9 nM. Besides, the IC50 in assay [1] turned out to be 10.9 nM; in assay [2], 1140 nM.
In the case of `Cc1cc(Nc2ncnc3cnc(N4CC/C(=C\C5CN(C)C5)C4=O)cc23)c(F)cc1Oc1ccn2ncnc2c1` [Compound 138, (3E)-1-{4-[(2-fluoro-5-methyl-4-{[1,2,4]triazolo[1,5-a]pyridin-7-yloxy}phenyl)amino]pyrido[3,4-d]pyrimidin-6-yl}-3-[(1-methylazetidin-3-yl)methylidene]pyrrolidin-2-one], in assay [3] (setting [5]), the GI50 was determined as 99.6 nM. For the same molecule, the IC50 in assay [1] is 16.8 nM; in assay [2], over 10000 nM.
The corresponding values for `Cc1cc(Nc2ncnc3ccc(N4CC/C(=C\C5CN(C)C5)C4=O)nc23)ccc1Oc1ccn2ncnc2c1` [Compound 139, (3E)-1-{4-[(3-methyl-4-{[1,2,4]triazolo[1,5-a]pyridin-7-yloxy}phenyl)amino]pyrido[3,2-d]pyrimidin-6-yl}-3-[(1-methylazetidin-3-yl)methylidene]pyrrolidin-2-one] are 15.7 nM, 14.3 nM and over 10000 nM.
Regarding `CN(C)C/C=C1\CCN(c2cc3c(Nc4cc(F)c(Oc5ccn6ncnc6c5)cc4F)ncnc3cn2)C1=O` [Compound 140, (3E)-1-{4-[(2,5-difluoro-4-{[1,2,4]triazolo[1,5-a]pyridin-7-yloxy}phenyl)amino]pyrido[3,4-d]pyrimidin-6-yl}-3-[2-(dimethylamino)ethylidene]pyrrolidin-2-one], the GI50 in assay [3] (setting [5]) is 78.1 nM. The IC50 is 20.5 nM in assay [1] and over 10000 nM in assay [2].
As to `CN(C)C/C=C1\CCN(c2ccc3ncnc(Nc4cc(F)c(Oc5ccn6ncnc6c5)cc4F)c3n2)C1=O` [Compound 141, (E)-1-(4-((4-([1,2,4]triazolo[1,5-a]pyridin-7-yloxy)-2,5-difluorophenyl)amino)pyrido[3,2-d]pyrimidin-6-yl)-3-(2-(dimethylamino)ethylidene)pyrrolidin-2-one], the GI50 in assay [3] (setting [5]) turned out to be 28.5 nM. Also, the IC50 is 23.8 nM in assay [1] and over 10000 nM in assay [2].
Consider `Cc1cc(Nc2ncnc3ccc(N4C(=O)/C(=C\CN(C)C)C5CC54)nc23)ccc1Oc1ccn2ncnc2c1` (stereo not drawn) [Compound 142, (4Z)-4-[2-(dimethylamino)ethylidene]-2-{4-[(3-methyl-4-{[1,2,4]triazolo[1,5-a]pyridin-7-yloxy}phenyl)amino]pyrido[3,2-d]pyrimidin-6-yl}-2-azabicyclo[3.1.0]hexan-3-one], for which the GI50 in assay [3] (setting [5]) was 5.8 nM. The IC50 amounted to 15.4 nM in assay [1] and 543 nM in assay [2].
The like results for `Cc1cc(Nc2ncnc3cnc(N4CC/C(=C\CN(C)C)C4=O)cc23)ccc1Oc1cncc(F)c1` [Compound 155, (3E)-3-[2-(dimethylamino)ethylidene]-1-[4-({4-[(5-fluoropyridin-3-yl)oxy]-3-methylphenyl}amino)pyrido[3,4-d]pyrimidin-6-yl]pyrrolidin-2-one] were, in that order, 35.4 nM, 17.9 nM and 331 nM.
Take `CN(C)C/C=C1\CCN(c2ccc3ncnc(Nc4ccc(Oc5ccn6ncnc6c5)cc4F)c3n2)C1=O` [Compound 156, (E)-1-(4-((4-([1,2,4]triazolo[1,5-a]pyridin-7-yloxy)-2-fluorophenyl)amino)pyrido[3,2-d]pyrimidin-6-yl)-3-(2-(dimethylamino)ethylidene)pyrrolidin-2-one]: in assay [3] (setting [5]), the GI50 was 23.3 nM. The IC50 in assay [1] is 21.7 nM; in assay [2] it was 7760 nM.

The values are drawn from patent US20240116921A1, “LACTAM (HETERO)[…] DERIVATIVES AS INHIBITORS OF ERBB2” (EnLiven Therapeutics, Inc., priority 2020, published 2024).
